In BindingDB's records for doi:10.1074/jbc.M113.453423 (Université Montpellier 1, 2013):
Where a SMILES comes first, the peptide text is derived from it. [ ]: non-standard residue; d: D form.

Tests used:
Experiment in all cases: GHS Ligand Binding Assay
[1] = biological target: Dimer of Growth hormone secretagogue receptor type 1 (Homo sapiens, UniProt Q92847)
Experimental: (§1) Titration experimentswere carried out with protein concentrations in the 10 nM protein concentration range and increasing ligand concentrations. […] Buffer contributions were systematically subtracted.

[2] = biological target: Growth hormone secretagogue receptor type 1/Isoform 1B of Growth hormone secretagogue receptor type 1 (1B) (Homo sapiens, UniProt Q92847)
Chain of Growth hormone secretagogue receptor type 1/Isoform 1B of Growth hormone secretagogue receptor type 1 (1B) (Q92847 whole entry, canonical isoform): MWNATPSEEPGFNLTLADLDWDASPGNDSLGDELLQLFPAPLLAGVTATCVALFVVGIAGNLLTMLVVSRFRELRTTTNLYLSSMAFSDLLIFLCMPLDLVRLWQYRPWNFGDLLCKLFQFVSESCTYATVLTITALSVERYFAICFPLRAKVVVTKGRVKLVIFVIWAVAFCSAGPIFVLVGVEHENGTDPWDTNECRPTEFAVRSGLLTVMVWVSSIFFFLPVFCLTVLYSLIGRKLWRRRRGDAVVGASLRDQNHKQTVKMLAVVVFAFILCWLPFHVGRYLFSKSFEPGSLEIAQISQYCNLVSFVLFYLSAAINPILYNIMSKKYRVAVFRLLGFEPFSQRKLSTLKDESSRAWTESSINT
Chain of Growth hormone secretagogue receptor type 1/Isoform 1B of Growth hormone secretagogue receptor type 1 (1B) (Q92847 as listed by the source): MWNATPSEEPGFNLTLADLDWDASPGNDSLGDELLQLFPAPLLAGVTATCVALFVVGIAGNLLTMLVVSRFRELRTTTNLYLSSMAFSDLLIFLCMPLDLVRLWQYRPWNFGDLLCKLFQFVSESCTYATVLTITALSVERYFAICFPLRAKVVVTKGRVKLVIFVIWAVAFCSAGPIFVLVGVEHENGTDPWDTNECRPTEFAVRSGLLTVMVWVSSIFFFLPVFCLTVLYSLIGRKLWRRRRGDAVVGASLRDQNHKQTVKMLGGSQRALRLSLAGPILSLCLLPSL
Experimental: as §1

[3] = biological target: Growth hormone secretagogue receptor type 1 (Homo sapiens, UniProt Q92847)
Chain of Growth hormone secretagogue receptor type 1 (Q92847 whole entry): as the sequence (Q92847 whole entry, canonical isoform) above
Experimental: as §1

Chain of Dimer of Growth hormone secretagogue receptor type 1 (Q92847 whole entry): as the sequence (Q92847 whole entry, canonical isoform) above

Ki [1] | Ki [2] | Ki [3] | SMILES
9.9 nM | 19.3 nM | 9.2 nM | COc1ccc(Cn2c(CCc3ccccc3)nnc2C(Cc2c[nH]c3ccccc23)NC(=O)c2ccccn2)c(OC)c1 (configuration not stated) [JMV 3002]
– | – | 8.3 nM | COc1ccc(Cn2c(CCc3c[nH]c4ccccc34)nnc2C(Cc2c[nH]c3ccccc23)NC(=O)c2ccccn2)c(OC)c1 (configuration not stated) [JMV 3011]
286 nM | 292 nM | 294 nM | CC(C)C[C@H](NC(=O)[C@H](CC(C)C)NC(=O)[C@@H](Cc1c[nH]c2ccccc12)NC(=O)[C@H](Cc1ccccc1)NC(=O)[C@@H](Cc1c[nH]c2ccccc12)NC(=O)[C@H](CCC(N)=O)NC(=O)[C@@H](Cc1c[nH]c2ccccc12)NC(=O)[C@@H]1CCCN1C(=O)[C@H](CCCCN)NC(=O)[C@@H]1CCCN1C(=O)[C@H](N)CCCN=C(N)N)C(N)=O [Substance P [DArg1, DTrp5,7,9,  Leu11]] (H-[dR]PKP[dW]Q[dW]F[dW]LL-NH2)
